Measured values from patent publication US20070179060A1, “6-(Poly-substituted aryl)-4-aminopicolinates and their use as herbicides” (priority 2006, published 2007).

Legend:
[1] = system: velvetleaf (Abutilon theophrasti); assay: Postemergence herbicidal activity; type: in vivo; conditions: Abutilon theophrasti, post-emergence, 336 h, post-emergent, 140 g ai/ha, after 14 days; read-out: % Control ABUTH
Outline: (§1)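 Plants grown 7-21 days in greenhouse (about 15 h photoperiod, 23-29° C day, 22-28° C night) to first or second true leaf stage. Compounds in acetone/water/isopropanol/DMSO carrier with crop oil concentrate and Triton X-155 sprayed overhead at 187 L/ha; controls received solvent blank. Plants sub-irrigated afterwards; dose responses analysed by probit analysis.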

[2] = system: redroot pigweed (Amaranthus retroflexus); assay: Postemergence herbicidal activity; type: in vivo; conditions: Amaranthus retroflexus, post-emergence, 336 h, post-emergent, 140 g ai/ha, after 14 days; read-out: % Control AMARE
Outline: as §1

[3] = system: lambsquarter (Chenopodium album); assay: Postemergence herbicidal activity; type: in vivo; conditions: Chenopodium album, post-emergence, 336 h, post-emergent, 140 g ai/ha, after 14 days; read-out: % Control CHEAL
Outline: as §1

Monochoria vaginalis = assay: Herbicidal activity in transplanted paddy rice; type: in vivo; conditions: paddy water application, after 3 weeks; for pest or weed control at 17.5 g/ha: 17.5 g ai/ha; for pest or weed control at 70 g/ha: 70 g ai/ha
Method: (§2) Weed seeds or nutlets of the desired test plant species were planted in puddled soil (mud) prepared by mixing a non-sterilized mineral soil (28 percent silt, 18 percent clay, and 54 percent sand, with a pH of about 7.3 to 7.8 and an organic matter content of about 1.0 percent) and water at a ratio of 100 kg of soil to 19 L of water. The prepared mud was dispensed in 250 mL aliquots into 480 mL non-perforated plastic pots with a surface area of 91.6 square centimeters leaving a headspace of 3 centimeters in each pot. […] Seedlings at the second or third leaf stage of growth were transplanted into 650 mL of mud contained in 960 mL non-perforated plastic pots with a surface area of 91.6 square centimeters 4 days prior to herbicide application. The paddy was created by filling the 3 centimeter headspace of the pots with water. When required to ensure good germination and healthy plants, a fungicide treatment and/or other chemical or physical treatment was applied. The plants were grown for 4-14 days in a greenhouse with an approximate 14 hour photoperiod which was maintained at about 29° C. during the day and 26° C. during the night. Nutrients were added as Osmocote (17:6:10, N:P:K+minor nutrients) at 2 g per pot. Water was added on a regular basis to maintain the paddy flood, and supplemental lighting was provided with overhead metal halide 1000-Watt lamps as necessary. The plants were employed for testing when they reached the second or third true leaf stage. A weighed amount, determined by the highest rate to be tested, of each test compound was placed in a 120 mL glass vial and was dissolved in 20 mL of acetone to obtain concentrated stock solutions. […] Application rates of ½×, ¼×, ⅛× and 1/16× of the high rate were obtained by injecting an appropriate amount of the stock solution into the aqueous layer of the paddy. Control plants were treated in the same manner with the solvent blank. The treated plants and control plants were placed in a greenhouse as described above and water was added as needed to maintain a paddy flood.

Echinochloa crus-galli = assay: Herbicidal activity in transplanted paddy rice; type: in vivo; conditions: paddy water application, after 3 weeks; for pest or weed control at 17.5 g/ha: 17.5 g ai/ha; for pest or weed control at 70 g/ha: 70 g ai/ha
Method: as §2

[4] = system: rice (Orysa sativa var. Japonica); assay: Herbicidal activity in transplanted paddy rice; type: in vivo; conditions: transplant rice (crop), paddy water application, after 3 weeks; for pest or weed control at 17.5 g/ha: 17.5 g ai/ha; for pest or weed control at 70 g/ha: 70 g ai/ha
Method: as §2

Scirpus juncoides = assay: Herbicidal activity in transplanted paddy rice; type: in vivo; conditions: paddy water application, after 3 weeks; for pest or weed control at 17.5 g/ha: 17.5 g ai/ha; for pest or weed control at 70 g/ha: 70 g ai/ha
Method: as §2

Cyperus difformis = assay: Herbicidal activity in transplanted paddy rice; type: in vivo; conditions: paddy water application, after 3 weeks; for pest or weed control at 17.5 g/ha: 17.5 g ai/ha; for pest or weed control at 70 g/ha: 70 g ai/ha
Method: as §2

[5] = system: velvetleaf (Abutilon theophrasti); assay: Preemergence herbicidal activity; type: in vivo; conditions: Abutilon theophrasti, pre-emergence, 480 h; pre-emergent, 140 g ai/ha, after 20-22 days; read-out: % Control ABUTH
Outline: (§3)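 Seeds sown in 70:30 loam (pH about 8.1, about 1.5% organic matter) and sand mix, then sprayed preemergence at 187 L/ha with a track sprayer; controls received solvent blank. Pots kept in greenhouse, about 15 h photoperiod, about 23-29° C. day and 22-28° C. night, top-irrigated.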

[6] = system: redroot pigweed (Amaranthus retroflexus); assay: Preemergence herbicidal activity; type: in vivo; conditions: Amaranthus retroflexus, pre-emergence, 480 h; pre-emergent, 140 g ai/ha, after 20-22 days; read-out: % Control AMARE
Outline: as §3

[7] = system: lambsquarter (Chenopodium album); assay: Preemergence herbicidal activity; type: in vivo; conditions: Chenopodium album, pre-emergence, 480 h; pre-emergent, 140 g ai/ha, after 20-22 days; read-out: % Control CHEAL
Outline: as §3

[8] = Pontederia vaginalis, 504 h, read-out: % Control MOOVA
[9] = Echinochloa crus-galli, 504 h, read-out: % Control ECHCG
[10] = Schoenoplectiella juncoides, 504 h, read-out: % Control SCPJU
[11] = Cyperus difformis, 504 h, read-out: % Control CYPDI

| SMILES | pest or weed control at 140 g/ha [1] [%] | pest or weed control at 140 g/ha [2] [%] | pest or weed control at 140 g/ha [3] [%] | melting point | pest or weed control at 70 g/ha (Monochoria vaginalis; [8]) [%] | pest or weed control at 70 g/ha (Echinochloa crus-galli; [9]) [%] | pest or weed control at 70 g/ha ([4]; Oryza sativa, 504 h) [%] | pest or weed control at 70 g/ha (Scirpus juncoides; [10]) [%] | pest or weed control at 70 g/ha (Cyperus difformis; [11]) [%] | pest or weed control at 140 g/ha [5] [%] | pest or weed control at 140 g/ha [6] [%] | pest or weed control at 140 g/ha [7] [%] | further results |
| --- | --- | --- | --- | --- | --- | --- | --- | --- | --- | --- | --- | --- | --- |
| COC(=O)c1nc(-c2ccc(Cl)c(C(F)F)c2F)cc(N)c1Cl [Compound 4, 4-Amino-3-chloro-6-(4-chloro-2-fluoro-3-difluoromethylphenyl)pyridine-2-carboxylic acid methyl ester] | 100 | 100 | 85 | 145 to 146 °C |  |  |  |  |  |  |  |  | pest or weed control at 17.5 g/ha (Monochoria vaginalis; [8]): 100%; pest or weed control at 17.5 g/ha (Echinochloa crus-galli; [9]): 0%; pest or weed control at 17.5 g/ha ([4]; Oryza sativa, 504 h): 0%; pest or weed control at 17.5 g/ha (Scirpus juncoides; [10]): 70%; pest or weed control at 17.5 g/ha (Cyperus difformis; [11]): 95% |
| COC(=O)c1nc(-c2ccc(Cl)c(CF)c2F)cc(N)c1Cl [Compound 5, 4-Amino-3-chloro-6-(4-chloro-2-fluoro-3-fluoromethylphenyl)pyridine-2-carboxylic acid methyl ester] | 100 | 35 | 90 |  | 100 | 20 | 0 | 90 | 100 |  |  |  |  |
| CCOc1c(Cl)ccc(-c2cc(N)c(Cl)c(C(=O)OC)n2)c1Cl [Compound 7, 4-Amino-3-chloro-6-(2,4-dichloro-3-ethoxyphenyl)pyridine-2-carboxylic acid methyl ester] | 100 | 90 | 95 | 132 to 133 °C | 100 | 100 | 10 | 85 | 100 |  |  |  |  |
| CCOc1c(Cl)ccc(-c2cc(N)c(Cl)c(C(=O)OC)n2)c1F [Compound 41, 4-amino-3-chloro-6-(4-chloro-2-fluoro-3-ethoxyphenyl)-pyridine-2-carboxylic acid methyl ester] | 95 | 85 | 98 | 154 to 156 °C |  |  |  |  |  | 80 | 50 | 90 | pest or weed control at 17.5 g/ha (Monochoria vaginalis; [8]): 100%; pest or weed control at 17.5 g/ha (Echinochloa crus-galli; [9]): 50%; pest or weed control at 17.5 g/ha ([4]; Oryza sativa, 504 h): 10%; pest or weed control at 17.5 g/ha (Scirpus juncoides; [10]): 90%; pest or weed control at 17.5 g/ha (Cyperus difformis; [11]): 100% |
| COC(=O)c1nc(-c2ccc3c(c2F)OCO3)cc(N)c1Cl [Compound 46, 4-Amino-3-chloro-6-(2-fluoro-3,4 methylenedioxyphenyl)pyridine-2-carboxylic acid methyl ester] | 100 | 100 | 95 | 139 to 141 °C |  |  |  |  |  |  |  |  | pest or weed control at 35 g/ha (Monochoria vaginalis; Pontederia vaginalis, 504 h, 35 g ai/ha, read-out: % Control MOOVA): 100%; pest or weed control at 35 g/ha (Echinochloa crus-galli; Echinochloa crus-galli, 504 h, 35 g ai/ha, read-out: % Control ECHCG): 20%; pest or weed control at 35 g/ha ([4]; Oryza sativa, 504 h, 35 g ai/ha): 0%; pest or weed control at 35 g/ha (Scirpus juncoides; Schoenoplectiella juncoides, 504 h, 35 g ai/ha, read-out: % Control SCPJU): 100%; pest or weed control at 35 g/ha (Cyperus difformis; Cyperus difformis, 504 h, 35 g ai/ha, read-out: % Control CYPDI): 100% |
| COC(=O)c1nc(-c2ccc(Br)c(OC)c2Cl)cc(N)c1Cl [Compound 52, 4-Amino-6-(4-bromo-2-chloro-3-methoxyphenyl)-3-chloropyridine-2-carboxylic acid, methyl ester] | 100 | 100 | 95 | 154 to 155 °C | 99 | 60 | 0 | 95 | 100 | 100 | 100 | 90 |  |
| CCOC(=O)c1nc(-c2ccc(Cl)c(OC)c2F)cc(N)c1Cl [Compound 86, 4-amino-3-chloro-6-(4-chloro-2-fluoro-3-methoxyphenyl)-pyridine-2-carboxylic acid, ethyl ester] | 100 | 100 | 100 |  | 100 | 25 | 10 | 95 | 100 |  |  |  |  |
| CC(F)c1c(Cl)ccc(-c2cc(N)cc(C(=O)O)n2)c1Cl (stereo not drawn) [Compound 125, 4-Amino-6-[2,4 dichloro-3-(1-fluoroethyl)phenyl]pyridine-2-carboxylic acid] |  |  |  | 169 to 170 °C (dec.) | 100 | 100 | 5 | 100 | 100 | 100 | 100 | 100 |  |
| CCN(CC)CC.COc1c(Cl)ccc(-c2cc(N)c(Cl)c(C(=O)O)n2)c1Cl [Compound 136, 4-Amino-3-chloro-6-(2,4 dichloro-3-methoxyphenyl)pyridine-2-carboxylic acid, triethyl amine salt] |  |  |  |  |  |  |  |  |  |  |  |  | % Control MOOVA (Monochoria vaginalis; 35 g ai/ha): 100%; % Control ECHCG (Echinochloa crus-galli; 35 g ai/ha): 15%; % Control ORYSA ([4]; 35 g ai/ha): 0%; % Control SCPJU (Scirpus juncoides; 35 g ai/ha): 80%; % Control CYPDI (Cyperus difformis; 35 g ai/ha): 100% |
